Columns and labels:
Test in all cases: Bliss excess, mean over the matrix (fraction); higher = more synergy
[1] = system: NCI-H835 (Other Solid Carcinomas)
Procedure, shortened: (§1)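 After 24 hours at 37°C and 5% CO2 in 1536-well plates, cells in DMEM/F12 or RPMI plus 10% FBS received two-drug dose matrices for 72 hours. Viability came from CellTiter-Glo 2.0 luminescence and was scaled as inhibition, anchored at 0 by vehicle wells and at 1 by blank wells. Combination Emax is taken as the second-highest inhibition in the matrix, and Bliss excess as the observed combination effect less EA + EB − EA·EB, with EA and EB the single-agent effects.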

[2] = system: TOV-21G (Ovarian Carcinoma)
Procedure, shortened: as §1

[3] = system: HT-144 (Melanoma)
Procedure, shortened: as §1

[4] = system: CAL-85-1 (Breast Carcinoma)
Procedure, shortened: as §1

[5] = system: NCI-H2009 (Lung Adenocarcinoma)
Procedure, shortened: as §1

[6] = system: JJN-3 (Plasma Cell Myeloma)
Procedure, shortened: as §1

[7] = system: JURL-MK1 (Chronic Myelogenous Leukemia)
Procedure, shortened: as §1

[8] = system: MRK-nu-1 (Breast Carcinoma)
Procedure, shortened: as §1

[9] = system: NCI-H2452 (Mesothelioma)
Procedure, shortened: as §1

[10] = system: GRANTA-519 (B-Cell Non-Hodgkin's Lymphoma)
Procedure, shortened: as §1

[11] = system: COR-L105 (Lung Adenocarcinoma)
Procedure, shortened: as §1

[12] = system: A375 (Melanoma)
Procedure, shortened: as §1

[13] = system: SNU-1 (Gastric Carcinoma)
Procedure, shortened: as §1

[14] = system: C2BBe1 (Colorectal Carcinoma)
Procedure, shortened: as §1

[15] = system: NCI-H1048 (Small Cell Lung Carcinoma)
Procedure, shortened: as §1

[16] = system: L-363 (Plasma Cell Myeloma)
Procedure, shortened: as §1

SMILES | Bliss excess [1] | Bliss excess [2] | Bliss excess [3] | Bliss excess [4] | Bliss excess [5] | Bliss excess [6] | Bliss excess [7] | Bliss excess [8] | Bliss excess [9] | Bliss excess [10] | Bliss excess [11] | Bliss excess [12] | Bliss excess [13] | Bliss excess [14] | Bliss excess [15] | Bliss excess [16]
COc1nnc2ccc(N3CCC(c4ccc(OCCN5CCN(C)C(=O)[C@H]5C)cc4)CC3)nn12 [AZD5153] + C=CCn1c(=O)c2cnc(Nc3ccc(N4CCN(C)CC4)cc3)nc2n1-c1cccc(C(C)(C)O)n1 [AZD1775] (first compound max 1 µM, partner max 1 µM) | -0.0618 | -0.0246 | 0.0394 | -0.0551 | -0.0229 | -0.0673 | -0.0006 | -0.0354 | -0.0525 | -0.0227 | -0.0063 | -0.0212 | -0.0873 | -0.0724 | -0.0823 | -0.0546
COc1nnc2ccc(N3CCC(c4ccc(OCCN5CCN(C)C(=O)[C@H]5C)cc4)CC3)nn12 [AZD5153] + CC1(C)CCC(CN2CCN(c3ccc(C(=O)NS(=O)(=O)c4ccc(NCC5CCOCC5)c([N+](=O)[O-])c4)c(Oc4cnc5[nH]ccc5c4)c3)CC2)=C(c2ccc(Cl)cc2)C1 [Venetoclax] (first compound max 1 µM, 7x7, partner max 1 µM) | -0.125 | -0.0264 | -0.0488 | -0.0582 | -0.0432 | 0.0278 | -0.0676 | -0.0537 | 0.0059 | 0.0237 | -0.0006 | -0.057 | -0.0523 | -0.0234 | 0.0165 | -0.101
COc1nnc2ccc(N3CCC(c4ccc(OCCN5CCN(C)C(=O)[C@H]5C)cc4)CC3)nn12 [AZD5153] + CCN(CCO)CCCOc1ccc2c(Nc3cc(CC(=O)Nc4cccc(F)c4)[nH]n3)ncnc2c1 [AZD2811] (first compound max 1 µM, 7x7, partner max 1 µM) | -0.0626 | -0.0249 | 0.0216 | -0.0411 | -0.0155 | 0.0098 | -0.0258 | 0.0096 | -0.0574 | 0.0771 | -0.0092 | -0.0295 | 0.0024 | -0.0364 | -0.042 | -0.0259
COc1nnc2ccc(N3CCC(c4ccc(OCCN5CCN(C)C(=O)[C@H]5C)cc4)CC3)nn12 [AZD5153] + C[C@@H]1COCCN1C2=NC(=NC(=C2)C3(CC3)[S@](=N)(=O)C)C4=C5C=CNC5=NC=C4 [AZD6738] (first compound max 1 µM, 7x7, partner max 10 µM) | -0.0811 | -0.0018 | 0.0637 | -0.006 | 0.081 | -0.0394 | 0.0077 | -0.0072 | 0.0045 | 0.0096 | -0.0092 | 0.0552 | 0.0228 | -0.0066 | 0.029 | -0.0453
COc1nnc2ccc(N3CCC(c4ccc(OCCN5CCN(C)C(=O)[C@H]5C)cc4)CC3)nn12 [AZD5153] + Cc1c2c(nn1C)CSCc1cc(n(C)n1)CSc1cc(c3ccccc3c1)OCCCc1c(C(=O)O)n(C)c3c-2c(Cl)ccc13 [AZD5991] (first compound max 1 µM, 7x7, partner max 1 µM) | -0.115 | -0.0337 | -0.0094 | -0.0157 | -0.0271 | -0.0268 | -0.055 | 0.0346 | -0.0265 | -0.0164 | -0.0134 | -0.0215 | 0.0194 | -0.041 | 0.0059 | -0.007
COc1nnc2ccc(N3CCC(c4ccc(OCCN5CCN(C)C(=O)[C@H]5C)cc4)CC3)nn12 [AZD5153] + Cn1cnc2c(F)c(Nc3ccc(Br)cc3Cl)c(C(=O)NOCCO)cc21 [Selumetinib] (first compound max 1 µM, 7x7, partner max 10 µM) | -0.0256 | -0.02 | 0.0212 | -0.0298 | -0.0123 | -0.0076 | 0.0397 | -0.0169 | -0.029 | -0.0143 | 0.0622 | 0.0241 | 0.063 | 0.0114 | -0.0108 | 0.0188
NC1(C(=O)N[C@@H](CCO)c2ccc(Cl)cc2)CCN(c2ncnc3[nH]ccc23)CC1 [Capivasertib] + CC(=O)c1c(C)c2cnc(Nc3ccc(N4CCNCC4)cn3)nc2n(C2CCCC2)c1=O [Palbociclib] (first compound max 10 µM, 7x7, partner max 10 µM) | -0.0562 | -0.0466 | -0.0486 | -0.0019 | -0.0054 | -0.0257 | -0.0233 | 0.001 | -0.02 | -0.0273 | 0.0532 | 0.0051 | 0.0634 | -0.0094 | -0.0269 | -0.0413
